Results published in the NIST ThermoML archive (doi:10.1021/je0301489).
Numbers after ± are expanded uncertainties.

How the values were obtained:
[1] = 101.33 kPa, Liquid
[2] = refractive index (Na D-line) (dimensionless); conditions: 101.33 kPa, Liquid
[3] = xn = mol fraction of the nth substance listed; conditions: 101.33 kPa, Liquid
[4] = refractive index (Na D-line) (dimensionless); xn = mol fraction of the nth substance listed; conditions: 101.33 kPa, Liquid

CCOC(=O)CC(C)=O [ethyl 3-oxobutanoate]
Conditions | mass density, 298.15 K [kg/m3] | mass density, 303.15 K [kg/m3] | mass density, 308.15 K [kg/m3] | refractive index, 298.15 K | refractive index, 303.15 K | refractive index, 308.15 K | speed of sound, 298.15 K [m/s] | viscosity, 298.15 K [mPa·s] | viscosity, 303.15 K [mPa·s] | viscosity, 308.15 K [mPa·s]
[1] | 1020.9 ± 1.1 | 1014.9 ± 1.2 | 1010.2 ± 1.2 | – | – | – | 1331 ± 3 | 1.48 ± 0.019 | 1.339 ± 0.017 | 1.239 ± 0.016
[2] | – | – | – | 1.4166 ± 0.0007 | 1.4145 ± 0.0007 | 1.412 ± 0.0007 | – | – | – | –

CCCCCCCCOC(=O)c1ccccc1C(=O)OCCCCCCCC [dioctyl 1,2-benzenedicarboxylate] + C1COCCO1
Conditions | mass density, 298.15 K [kg/m3] | mass density, 303.15 K [kg/m3] | mass density, 308.15 K [kg/m3] | refractive index, 298.15 K | refractive index, 303.15 K | refractive index, 308.15 K | speed of sound, 298.15 K [m/s] | viscosity, 298.15 K [mPa·s] | viscosity, 303.15 K [mPa·s] | viscosity, 308.15 K [mPa·s]
[3], x2 = 0 | 980.7 ± 1 | 977.1 ± 1 | 973.1 ± 1 | – | – | – | 1421 ± 3 | 43.03 ± 0.7 | 30.18 ± 0.5 | 21.88 ± 0.37
[3], x2 = 0.1337 | 982.2 ± 1 | 978.3 ± 1 | 974.4 ± 1.1 | – | – | – | 1416 ± 3 | 32.58 ± 0.54 | 24.97 ± 0.42 | 17.36 ± 0.3
[3], x2 = 0.2243 | 983.4 ± 1 | 979.4 ± 1 | 975.2 ± 1.1 | – | – | – | 1412 ± 3 | 26.39 ± 0.44 | 20.41 ± 0.35 | 14.44 ± 0.26
[3], x2 = 0.3207 | 984.8 ± 1 | 980.5 ± 1 | 976.4 ± 1.1 | – | – | – | 1406 ± 3 | 20.73 ± 0.36 | 16.1 ± 0.28 | 11.47 ± 0.21
[3], x2 = 0.4226 | 986.5 ± 1 | 982.2 ± 1 | 977.8 ± 1.1 | – | – | – | 1400 ± 3 | 15.4 ± 0.27 | 12.12 ± 0.22 | 8.836 ± 0.17
[3], x2 = 0.5169 | 988.4 ± 1 | 983.9 ± 1.1 | 979.6 ± 1.1 | – | – | – | 1394 ± 3 | 11.02 ± 0.21 | 8.852 ± 0.17 | 6.689 ± 0.14
[3], x2 = 0.6054 | 990.7 ± 1 | 986.3 ± 1.1 | 981.9 ± 1.1 | – | – | – | 1388 ± 3 | 8.056 ± 0.16 | 6.528 ± 0.13 | 5.001 ± 0.11
[3], x2 = 0.7161 | 995 ± 1.1 | 990.5 ± 1.1 | 985.9 ± 1.1 | – | – | – | 1379 ± 3 | 4.947 ± 0.11 | 4.096 ± 0.091 | 3.246 ± 0.073
[3], x2 = 0.8031 | 1000.2 ± 1.1 | 995.4 ± 1.1 | 990.6 ± 1.1 | – | – | – | 1372 ± 3 | 3.213 ± 0.073 | 2.717 ± 0.062 | 2.222 ± 0.052
[3], x2 = 0.9017 | 1009.9 ± 1.1 | 1004.6 ± 1.1 | 999.5 ± 1.2 | – | – | – | 1361 ± 3 | 1.863 ± 0.044 | 1.612 ± 0.039 | 1.361 ± 0.033
[4], x2 = 0 | – | – | – | 1.485 ± 0.0025 | 1.4831 ± 0.0025 | 1.481 ± 0.0025 | – | – | – | –
[4], x2 = 0.1337 | – | – | – | 1.4836 ± 0.0025 | 1.4819 ± 0.0025 | 1.4804 ± 0.0025 | – | – | – | –
[4], x2 = 0.2243 | – | – | – | 1.4822 ± 0.0025 | 1.4798 ± 0.0025 | 1.4775 ± 0.0025 | – | – | – | –
[4], x2 = 0.3207 | – | – | – | 1.4812 ± 0.0025 | 1.4784 ± 0.0025 | 1.4756 ± 0.0025 | – | – | – | –
[4], x2 = 0.4226 | – | – | – | 1.4781 ± 0.0025 | 1.4771 ± 0.0025 | 1.4762 ± 0.0025 | – | – | – | –
[4], x2 = 0.5169 | – | – | – | 1.4733 ± 0.0025 | 1.4717 ± 0.0025 | 1.47 ± 0.0025 | – | – | – | –
[4], x2 = 0.6054 | – | – | – | 1.4692 ± 0.0025 | 1.4673 ± 0.0025 | 1.4652 ± 0.0025 | – | – | – | –
[4], x2 = 0.7161 | – | – | – | 1.463 ± 0.0025 | 1.461 ± 0.0025 | 1.46 ± 0.0025 | – | – | – | –
[4], x2 = 0.8031 | – | – | – | 1.4566 ± 0.0025 | 1.4541 ± 0.0025 | 1.4516 ± 0.0025 | – | – | – | –
[4], x2 = 0.9017 | – | – | – | 1.4422 ± 0.0025 | 1.4401 ± 0.0025 | 1.4379 ± 0.0025 | – | – | – | –

C1COCCO1 [1,4-dioxane] + CCOC(=O)c1ccccc1C(=O)OCC
x1 = 1
Conditions | mass density, 298.15 K [kg/m3] | mass density, 303.15 K [kg/m3] | mass density, 308.15 K [kg/m3] | refractive index, 298.15 K | refractive index, 303.15 K | refractive index, 308.15 K | speed of sound, 298.15 K [m/s] | viscosity, 298.15 K [mPa·s] | viscosity, 303.15 K [mPa·s] | viscosity, 308.15 K [mPa·s]
[3] | 1027.6 ± 1.1 | 1021.9 ± 1.2 | 1016.2 ± 1.2 | – | – | – | 1347 ± 3 | 1.167 ± 0.015 | 1.069 ± 0.014 | 0.984 ± 0.013
[4] | – | – | – | 1.4202 ± 0.0007 | 1.417 ± 0.0007 | 1.4144 ± 0.0007 | – | – | – | –

CCOC(=O)C(=O)OCC [diethyl ethanedioate] + C1COCCO1
Conditions | mass density, 298.15 K [kg/m3] | mass density, 303.15 K [kg/m3] | mass density, 308.15 K [kg/m3] | refractive index, 298.15 K | refractive index, 303.15 K | refractive index, 308.15 K | speed of sound, 298.15 K [m/s] | viscosity, 298.15 K [mPa·s] | viscosity, 303.15 K [mPa·s] | viscosity, 308.15 K [mPa·s]
[3], x2 = 0 | 1072.9 ± 1.1 | 1066.2 ± 1.1 | 1060.8 ± 1.2 | – | – | – | 1276 ± 3 | 1.759 ± 0.021 | 1.581 ± 0.019 | 1.437 ± 0.017
[3], x2 = 0.1094 | 1070.9 ± 1.1 | 1064.2 ± 1.1 | 1058.1 ± 1.2 | – | – | – | 1284 ± 3 | 1.69 ± 0.02 | 1.539 ± 0.019 | 1.388 ± 0.017
[3], x2 = 0.2069 | 1067.5 ± 1.1 | 1061.4 ± 1.1 | 1055.3 ± 1.2 | – | – | – | 1292 ± 3 | 1.631 ± 0.02 | 1.487 ± 0.018 | 1.343 ± 0.017
[3], x2 = 0.3098 | 1064.4 ± 1.1 | 1058.3 ± 1.2 | 1052.1 ± 1.2 | – | – | – | 1301 ± 3 | 1.566 ± 0.019 | 1.428 ± 0.018 | 1.291 ± 0.016
[3], x2 = 0.4009 | 1061.1 ± 1.1 | 1055 ± 1.2 | 1048.9 ± 1.2 | – | – | – | 1310 ± 3 | 1.505 ± 0.019 | 1.375 ± 0.017 | 1.245 ± 0.016
[3], x2 = 0.4975 | 1057.3 ± 1.1 | 1051.1 ± 1.2 | 1045 ± 1.2 | – | – | – | 1320 ± 3 | 1.44 ± 0.018 | 1.316 ± 0.016 | 1.193 ± 0.015
[3], x2 = 0.5978 | 1052.8 ± 1.1 | 1046.7 ± 1.2 | 1040.6 ± 1.2 | – | – | – | 1329 ± 3 | 1.375 ± 0.017 | 1.259 ± 0.016 | 1.143 ± 0.015
[3], x2 = 0.7008 | 1047.7 ± 1.1 | 1041.5 ± 1.2 | 1035.4 ± 1.2 | – | – | – | 1337 ± 3 | 1.312 ± 0.017 | 1.203 ± 0.015 | 1.094 ± 0.014
[3], x2 = 0.7971 | 1042.1 ± 1.1 | 1036.1 ± 1.2 | 1029.9 ± 1.2 | – | – | – | 1343 ± 3 | 1.259 ± 0.016 | 1.157 ± 0.015 | 1.055 ± 0.014
[3], x2 = 0.8976 | 1035.5 ± 1.1 | 1029.5 ± 1.2 | 1023.6 ± 1.2 | – | – | – | 1347 ± 3 | 1.206 ± 0.016 | 1.111 ± 0.015 | 1.016 ± 0.013
[4], x2 = 0 | – | – | – | 1.4084 ± 0.0006 | 1.406 ± 0.0006 | 1.4034 ± 0.0006 | – | – | – | –
[4], x2 = 0.1094 | – | – | – | 1.4092 ± 0.0006 | 1.4068 ± 0.0006 | 1.4043 ± 0.0006 | – | – | – | –
[4], x2 = 0.2069 | – | – | – | 1.4101 ± 0.0006 | 1.4077 ± 0.0006 | 1.4052 ± 0.0006 | – | – | – | –
[4], x2 = 0.3098 | – | – | – | 1.4112 ± 0.0006 | 1.4087 ± 0.0006 | 1.4062 ± 0.0006 | – | – | – | –
[4], x2 = 0.4009 | – | – | – | 1.4119 ± 0.0006 | 1.4094 ± 0.0006 | 1.407 ± 0.0006 | – | – | – | –
[4], x2 = 0.4975 | – | – | – | 1.4129 ± 0.0006 | 1.4106 ± 0.0006 | 1.4084 ± 0.0006 | – | – | – | –
[4], x2 = 0.5978 | – | – | – | 1.4144 ± 0.0006 | 1.4118 ± 0.0006 | 1.409 ± 0.0006 | – | – | – | –
[4], x2 = 0.7008 | – | – | – | 1.4157 ± 0.0006 | 1.4132 ± 0.0006 | 1.4106 ± 0.0006 | – | – | – | –
[4], x2 = 0.7971 | – | – | – | 1.417 ± 0.0006 | 1.4145 ± 0.0006 | 1.412 ± 0.0006 | – | – | – | –
[4], x2 = 0.8976 | – | – | – | 1.4183 ± 0.0007 | 1.4158 ± 0.0007 | 1.4132 ± 0.0007 | – | – | – | –
